#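 GI50 marks 50% less growth. TGI is the concentration that stops growth completely.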
# Assays:
# Assay in all cases: DTP human tumour cell line panel, 384-well format
# SNB-75 CNS = system: SNB-75 CNS
# HOP-62 NSCLC = system: HOP-62 NSCLC
# SK-MEL-28 melanoma = system: SK-MEL-28 melanoma
# 786-0 renal = system: 786-0 renal
# MDA-MB-435 melanoma = system: MDA-MB-435 melanoma
# SF-295 CNS = system: SF-295 CNS
# OVCAR-5 ovarian = system: OVCAR-5 ovarian
# OVCAR-8 ovarian = system: OVCAR-8 ovarian
# MDA-MB-468 breast = system: MDA-MB-468 breast
# K-562 leukemia = system: K-562 leukemia
# SK-OV-3 ovarian = system: SK-OV-3 ovarian
# NCI-H322M lung = system: NCI-H322M lung
# HOP-92 NSCLC = system: HOP-92 NSCLC
smiles,measurement,setting,value
CS(=O)(=O)c1ccc(C(=O)Nc2ccc(Cl)c(-c3ccccn3)c2)c(Cl)c1,GI50,SNB-75 CNS,32.3 µM
same,TGI,SNB-75 CNS,80.3 µM
same,GI50,HOP-62 NSCLC,61.9 µM
same,TGI,HOP-62 NSCLC,> 100 µM
same,GI50,SK-MEL-28 melanoma,> 53.4 µM
same,TGI,SK-MEL-28 melanoma,> 100 µM
same,GI50,786-0 renal,22.8 µM
same,TGI,786-0 renal,58.3 µM
same,GI50,MDA-MB-435 melanoma,> 62 µM
same,TGI,MDA-MB-435 melanoma,> 100 µM
same,GI50,SF-295 CNS,33 µM
same,TGI,SF-295 CNS,> 67.7 µM
same,GI50,OVCAR-5 ovarian,54.2 µM
same,TGI,OVCAR-5 ovarian,> 100 µM
same,GI50,OVCAR-8 ovarian,45.7 µM
same,TGI,OVCAR-8 ovarian,99.4 µM
same,GI50,MDA-MB-468 breast,22.2 µM
same,TGI,MDA-MB-468 breast,46.7 µM
same,GI50,K-562 leukemia,16.3 µM
same,TGI,K-562 leukemia,31.1 µM
same,GI50,SK-OV-3 ovarian,> 72.5 µM
same,TGI,SK-OV-3 ovarian,> 100 µM
same,GI50,NCI-H322M lung,67.2 µM
same,TGI,NCI-H322M lung,> 100 µM
same,GI50,HOP-92 NSCLC,31.2 µM
same,TGI,HOP-92 NSCLC,79 µM

# Reference: PubChem BioAssay (NCI)
